Patent publication US4486437A, “Phthalidyl apovincaminate with cerebral eubolic activity” (Ausonia Farmaceutici s.r.l., priority 1982, dated 1984)
Where two headings read alike, the source gives them in different places.

How the values were obtained:
isolated rabbit ileum = assay: Effect on the smooth musculature, isolated rabbit ileum
[1] = Enzyme hydrolysis in vitro, incubation with rat plasma; assay type: in vitro ADME; conditions: apovincaminic acid formed measured by gas chromatography
Source text: (§1) The pharmacokinetics of enzyme hydrolysis has been studied both in vitro and in vivo in the rat after oral administration of AP 698 labelled with tritium.

[2] = system: cerebral electrical activity in the waking rabbit; assay: Effect on deterioration of electrogenesis by cerebral ischaemia (EEG); assay type: in vivo
[3] = system: hypobaric hypoxia in the mouse; assay: Changes in mortality caused by hypobaric hypoxia (survival time); assay type: in vivo; conditions: for Survival time (mean values ± standard error): 190 mmHg, controls 72,5 ± 3,5
Protocol: The experiments were conducted on mice confined in cages in which the pressure was reduced to a level (190 mmHg) which caused the death of the animals.
After determining the survival time of the controls, the effects of various dosage levels of AP 698 were studied.

[4] = Acute toxicity, single administration (LD50, Litchfield and Wilcoxon method); conditions: in vivo, rat, read-out: LD50 (95% confidence limit)
Source text: The toxicity of single administrations of AP 698 has been studied in the rat, treating the animals by the oral and intraperitoneal routes with various dosage levels of AP 698.
The LD50 values, determined by the Litchfield and Wilcoxon method (J. Pharmacol. Exp. Therap., 1949, 96, 99) are given in Table 1.

[5] = Pharmacokinetics in vivo after oral administration of tritium-labelled AP 698; conditions: rat; for presence in the plasma: after oral AP 698
Source text: as §1

[6] = post-ischaemic phase, contrary to controls
[7] = treated animals vs controls, i.v.
[8] = 16 mg/kg i.v., N.S. (MannWhitney)
[9] = 25,6 mg/kg i.v., significance 0.01 (MannWhitney)
[10] = 41,0 mg/kg i.v., significance 0.01 (MannWhitney)

Structure (SMILES): CCC12C=C(C(=O)OC3OC(=O)c4ccccc43)n3c4c(c5ccccc53)CCN(CCC1)C42 (stereo not drawn) [AP 698, 13a-ethyl-2,3,5,6,13a,13b-hexahydro-1H-indolo(3,2,1-de)pyrido(3,2,1-ij)(1,5)naphthyridin-12-phthalidyl carboxylate]
- myorelaxant activity (isolated rabbit ileum; isolated rabbit ileum, compared with vincamine under the same conditions): considerable myorelaxant activity, decidedly higher than that displayed by vincamine
- effect on the tonus and amplitude of the contractions, compared with vincamine (isolated rabbit ileum; musculature in basal conditions and made hypertonic with sodium or serotonin): greater effect
- half-life [1]: 7.3 min
- minimal effective dose ([2]; Oryctolagus cuniculus, intravenous at the end of the ischaemic manoeuvre, dose-dependent, read-out: lowest dose with evident therapeutic effect): 0.5 mg/kg
- amplitude of the theta rhythm ([2]; between the 10th and 20th minutes, contrary to controls): not reduced
- (theta+beta)/(delta+alpha) ratios ([2]; between the 14th and the 25th minutes, vs controls): decrease less than in the controls
- frequency of the theta rhythm [2, 6]: not increased
- relative representation times (theta rhythm) [2, 6]: not dispersed
- beta rhythm ([2]; post-ischaemic phase, vs controls): less reduced than in the controls
- recovery of the EEG and of the cortical reactivity to stimulation [2, 7]: quicker recovery
- return to a trace comparable to that recorded before the ischaemic manoeuvre [2, 7]: return in a shorter time
- Survival time (mean values ± standard error) [3, 8]: 67,5 ± 2,5 sec.
- Variation (survival time) [3, 8]: -6,9%
- Survival time (mean values ± standard error) [3, 9]: 116,3 ± 13,5 sec.
- Variation (survival time) [3, 9]: +60,4%
- Survival time (mean values ± standard error) [3, 10]: 157,9 ± 33,2 sec.
- Variation (survival time) [3, 10]: +117,8%
- survival time, protective effect on induced hypobaric hypoxia (in words) ([3]; mouse, various dosage levels): highly significant extension of the survival time with a substantial protective effect
- LD50 ([4]; ip, i.p.): 684 mg/kg
- LD50 ([4]; po, p.o.): > 3000 mg/kg
- presence in the plasma [5]: both unchanged AP 698 and apovincaminic acid in the plasma
- half-life ([5]; oral, plasma, read-out: half-life of unchanged AP 698): 72 min

Structure (SMILES): CCC12C=C(C(=O)O)n3c4c(c5ccccc53)CCN(CCC1)C42 (stereo not drawn) [apovincaminic acid]
- levels of apovincaminic acid following the administration of AP 698 [5]: persistent levels
- presence in the plasma [5]: both unchanged AP 698 and apovincaminic acid in the plasma
